Several values for one entry are separate records, joined by “and”; a condition that tells them apart may be missing. Equal entries are not always repeated.
Legend:
[1] = Dissolution test of capsules (Chinese Pharmacopoeia 2015, General Method 0931, 2nd Method); assay type: physicochemical
Protocol: The hydrates obtained hereinabove and the compound of formula A were tested for dissolution rate. The test method was as follows.
Step 1: Pretreating Raw Materials
The samples were passed through a 100 mesh sieve.
Step 2: Blending Raw Materials with Auxiliary Materials
The raw materials and lactose were weighed according to the prescription, mixed in equal increment, sieved and mixed.
The capsules were filled via a capsule filling plate and sealed. The difference of the filling amount was controlled to ±5%. The appearance was inspected to ensure that the sealing was correct and there was no split or deformation.
Test method: dissolution test method (Chinese Pharmacopoeia, edited in 2015, Chapter 4, General Method 0931, the 2nd Method)
Dissolution medium: aqueous solution
Specific test method: The sample was tested following the dissolution test method (Chinese Pharmacopoeia, edited in 2015, Chapter 4, General Method 0931, the 2nd Method). 900 ml aqueous solution was used as the dissolution medium. The speed was 50 rpm. The test was performed in accordance with the method. […] After filtration, the filtrate was precisely measured and quantitatively diluted with the dissolution medium to prepare a solution containing about 10 μg of sample per 1 ml. The absorbance was measured by at 231 nm by UV-Vis spectrophotometry (Chinese Pharmacopoeia, edited in 2015, Chapter 4, General Method 0931, the 2nd Method). An appropriate amount of the control sample was taken, weighed accurately, dissolved in dissolution medium and diluted quantitatively to prepare a solution containing about 10 μg of the sample per 1 ml, and then measured in the same way. The amount of dissolution per capsule was calculated.

[2] = test system: LPS-induced ALI mice; assay: LPS-induced ALI model: lung weight coefficient; assay type: in vivo, Balb/c mice; settings: CT-NA 10 or 30 mg/kg (P<0.01, dose-dependent), Dex 1 mg/kg; 24 hrs after LPS
Protocol: Specific pathogen-free (SPF) Balb/c mice (♂/♀; 20-26 g; 8 weeks old) were purchased from Shanghai SIPPR-BK Experimental Animal Co., Ltd. Mice were kept in an isolated ventilated cage in an environment of 40-60% humidity, 24±2° C., and 12 hrs/12 hrs dark-light cycle, and had free access to food and water. The method for preparing the LPS-induced ALI model was simply described as follows. The mice were randomly divided into a control group (12 mice) and an LPS group (48 mice). The LPS group (48 mice) was further divided into four subgroups (12 mice in each subgroup). […] 24 hrs after LPS challenge, the oxygen saturation (SO2) of all mice was measured by a Moor VMS-OXY™ instrument which measured SO2 (%) in the microcirculation at the wavelength range of 500 to 650 nm. […]
The mice were euthanized to expose the trachea, and then the right lungs were lavaged three times with 0.4 mL/time of sterile normal saline containing bovine serum albumin (BSA) and 5000 IU/L heparin to collect the BALF via tracheal tube. […] The removed lung tissues were weighted after aspirating the surface blood, and the lung weight coefficient was calculated. The lung weight coefficient was an indicator of pulmonary edema, and it was measured by dividing the individual lung weight of each mouse by its total body weight.

[3] = test system: RAW264.7 macrophages; assay: RT-PCR analysis, LPS- or PGD2-stimulated RAW264.7; assay type: cell-based, mouse; settings: CT-NA 10 and 100 μM, P<0.05 or P<0.01
Protocol: For ELISA and RT-PCR, RAW 264.7 macrophages were acclimated to two 12-well plates at 70-80% confluence. Thereafter, the medium in the 12-well plate was replaced with serum-free RPMI-1640 medium for 10-12 hrs and then exposed to CT-NA (10 and 100 μM) for 1 hour. One hour later, one 12-well plate was treated with LPS (100 ng/ml) for 24 hrs, and the other was treated with PGD2 (10 μM) for 24 hrs. After the treatment, the supernatant of the treated cells was collected to measure the protein levels of TNF-α, IL-1β, IL-6, and KC using ELISA kits according to the method of the instructions. Subsequently, RNA samples from each treated plate were extracted and reverse-transcripted into cDNA with HiScript5xQRTSuperMix, and then subjected to RT-PCR using BioRad CFX96 Touch™ real-time PCR detection system (San Diego, Calif.). Similarly, total RNAs extracted from treated isolated peritoneal macrophages were subjected to analyze the mRNA levels of IL-10, TNF-α, IL-6 and KC. The primers used in the RT-PCR reaction were shown in Table 2. β-actin was used as an internal control. The RT-PCR reactions were triplicated and the relative expression of target mRNA was normalized by the respective β-actin.

Compound: CN([C@@H]1CCc2c(CC(=O)[O-])c3cccnc3n2C1)S(=O)(=O)c1ccc(F)cc1.[Na+] [Sodium salt hydrate]
- Dissolution rate, Mean (%), 5 min ([1]; mean of 6 capsules, purified water, 50 rpm, 5 min): 50.5%
- Dissolution rate, Mean (%), 10 min ([1]; mean of 6 capsules, purified water, 50 rpm, 10 min): 76.6%
- Dissolution rate, Mean (%), 15 min ([1]; mean of 6 capsules, purified water, 50 rpm, 15 min): 92.1%
- Dissolution rate, Mean (%), 20 min ([1]; mean of 6 capsules, purified water, 50 rpm, 20 min): 98.6%
- Dissolution rate, Mean (%), 30 min ([1]; mean of 6 capsules, purified water, 50 rpm, 30 min): 100.6%
- Dissolution rate, Mean (%), 45 min ([1]; mean of 6 capsules, purified water, 50 rpm, 45 min): 100.8%
- dissolution rate (in words) ([1]; same method, aqueous dissolution medium): best dissolution rate
- Dissolution rate, 5 min ([1]; single capsules 1-6, purified water, 50 rpm, 5 min, hydrate): 55.8% and 34.3% and 57.9% and 45.5% and 56.7% and 52.8%
- Dissolution rate, 10 min ([1]; single capsules 1-6, purified water, 50 rpm, 10 min, hydrate): 77.8% and 82.6% and 69.0% and 73.6% and 62.2% and 94.6%
- Dissolution rate, 15 min ([1]; single capsules 1-6, purified water, 50 rpm, 15 min, hydrate): 96.6% and 79.1% and 91.7% and 93.3% and 99.1% and 92.7%
- Dissolution rate, 20 min ([1]; single capsules 1-6, purified water, 50 rpm, 20 min, hydrate): 101.8% and 94.8% and 96.2% and 98.3% and 100.1% and 100.2%
- Dissolution rate, 30 min ([1]; single capsules 1-6, purified water, 50 rpm, 30 min, hydrate): 103.4% and 100.7% and 98.0% and 99.1% and 102.2% and 100.2%
- Dissolution rate, 45 min ([1]; single capsules 1-6, purified water, 50 rpm, 45 min, hydrate): 102.8% and 101.5% and 97.5% and 99.7% and 102.7% and 100.9%
- lung wet weight coefficient [2]: notably reduced
- mRNA expressions of IL-1β, TNF-α, IL-6 and KC, LPS-stimulated ([3]; LPS, dose-dependent): reduced
- mRNA expressions of IL-1β, TNF-α, IL-6 and KC, PGD2-stimulated ([3]; PGD2, dose-dependent): reduced

— US20220098197A1, “SALTS OF HETEROCYCLIC COMPOUND AND USE THEREOF” (priority 2019, published 2022)
